Measurements reported in article PMC12040169 (PLOS Biology, 2025).

Assay: in vitro
Conditions: human, hela cells, % viability

Structure (SMILES)	viability at 28.5 h, 10 µM [%]
O=C(c1ccccc1F)N1CCC(O)(c2cccnc2F)CC1 [CBK284356]	97.1
O=C(c1cccc(F)c1)N1CCC(O)(c2cccnc2F)CC1 [CBK284357]	92.2
Cc1ccc(C(=O)N2CCC(O)(c3cccnc3F)CC2)o1 [CBK284358]	94.4
O=C(c1c(F)cccc1F)N1CCC(O)(c2cccnc2F)CC1 [CBK284359]	97.7
O=C(Cc1ccccc1Cl)N1CCC(O)(c2cccnc2F)CC1 [CBK284360]	101
CCS(=O)(=O)N1CC2CCCC(O)(c3ccc(F)cc3)C2C1 (centres unmarked) [CBK284363]	80.5
Cc1cc(-c2cc(=O)n(Cc3ccccc3F)nc2C2CC2)on1 [CBK284366]	87.2
CCC(=O)N1CCC(c2cc(C(F)(F)F)n3nc(C)cc3n2)CC1 [CBK284367]	96.9
OC1(c2cccnc2F)CCN(Cc2ccc(Cl)cc2)CC1 [CBK284368]	102
OC1(c2cccnc2F)CCN(Cc2ccccc2F)CC1 [CBK284372]	91
OC1(c2cccnc2F)CCN(Cc2cccc(F)c2F)CC1 [CBK284375]	96.2
Cc1ccccc1CN1CCC(O)(c2cccnc2F)CC1 [CBK284376]	96
OC1(c2ccc(F)cc2)CCCC2CN(Cc3cccnc3)CC21 (centres unmarked) [CBK284377]	86.8
Cc1cc2ncc3c(n2n1)CC1CCC3N1C(=O)c1ccco1 (centres unmarked) [CBK284379]	78.1
c1coc(-c2cc3ncc4c(n3n2)CC2CCC4N2)c1 (centres unmarked) [CBK284381]	84.7
C=Cn1cccc1C(=O)N1C2CCC1c1cnc3cc(C)nn3c1C2 (centres unmarked) [CBK284382]	89.2
CCCC(=O)N1C2CCC1c1cnc3cc(-c4ccco4)nn3c1C2 (centres unmarked) [CBK284383]	96.6
O=C1Nc2cc(Cl)ccc2C2=NCCCN12 [CBK284385]	81.5
CCN(CC)C(=O)CN1C(=O)N2CCCN=C2c2ccc(Cl)cc21 [CBK284386]	91.7
CC(C)(C)NC(=O)CN1C(=O)N2CCCN=C2c2ccc(Cl)cc21 [CBK284391]	102
CN(C)C(=O)CN1C(=O)N2CCCN=C2c2ccc(Cl)cc21 [CBK284392]	98.2
CC1CCCCN1C(=O)CN1C(=O)N2CCCN=C2c2ccccc21 (centres unmarked) [CBK284393]	79.8
CC(C)OC(=O)CN1C(=O)N2CCCN=C2c2ccccc21 [CBK284394]	89.4

Structure (SMILES)	viability at 28.5 h, 10 µM [%]
O=C(CN1C(=O)N2CCCN=C2c2ccccc21)N1CCCCC1 [CBK284395]	85.8
O=C(CN1C(=O)N2CCCN=C2c2ccccc21)NC1CCCC1 [CBK284397]	82.6
CCN(CC)C(=O)CN1C(=O)N2CCCN=C2c2ccccc21 [CBK284398]	84.4
CC(C)N(C(=O)CN1C(=O)N2CCCN=C2c2ccccc21)C(C)C [CBK284400]	100
O=C(CN1C(=O)N2CCCN=C2c2ccccc21)NCc1ccccc1 [CBK284403]	84.8
CC(C)(C)NC(=O)CN1C(=O)N2CCCN=C2c2ccccc21 [CBK284404]	89.7
Cc1nc2c(c(=O)[nH]1)CC[C@@H]1CN(C(=O)C3CCCCC3)C[C@H]21 [CBK284407]	102
Cc1ccccc1-n1ncc2c1NC(=O)N1CCCN=C21 [CBK284409]	78.7
Cc1nc2c(c(=O)[nH]1)CC[C@@H]1CN(C(=O)Cc3ccsc3)C[C@H]21 [CBK284411]	83.5
Cc1nc2c(c(=O)[nH]1)CC[C@@H]1CN(C(=O)CCc3ccccc3)C[C@H]21 [CBK284414]	95.9
O=C(c1ccco1)N1C2CCC1CC(O)(c1cccnc1F)C2 (centres unmarked) [CBK284417]	98.6
O=C(c1ccccc1F)N1C2CCC1CC(O)(c1cccnc1F)C2 (centres unmarked) [CBK284420]	98.4
Cn1nccc1C(=O)C1CCN(C(=O)c2cccc(F)c2)CC1 [CBK284426]	89.2
Cn1nccc1C(=O)C1CCN(C(=O)c2cc3c(s2)CCC3)CC1 [CBK284427]	78.6
COc1ccc2[nH]c3c(c2c1)CCN(C(C)=O)C31CCNCC1 [CBK284429]	79.1
c1cncc(C2N3CCC4(CC3)c3[nH]c5ccccc5c3CCN24)c1 (centres unmarked) [CBK284430]	92.8
Fc1ccc2[nH]c3c(c2c1)CCN1C(c2ccccn2)N2CCC31CC2 (centres unmarked) [CBK284431]	101
COc1ccc2[nH]c3c(c2c1)CCN1C(c2ccco2)N2CCC31CC2 (centres unmarked) [CBK284432]	88
O=C1NC2(CCC(=O)N(Cc3ccccc3)CC2)Nc2ccccc21 (centres unmarked) [CBK284439]	89.8
COC(=O)C1CC2CCC1(C)CC21NC(=O)c2ccccc2N1 (centres unmarked) [CBK284440]	100
CCOC(=O)C1CC2CCC1C[C@]21NC(=O)c2ccccc2N1 (some centres unmarked) [CBK284441]	93.4
C=CCNC(=O)C1CC2CCC1(C)C[C@@]21NC(=O)c2ccccc2N1 (some centres unmarked) [CBK284442]	86.6
Cn1cccc1CN1C[C@H]2CC[C@]3(NC(=O)c4ccccc4N3)[C@H]2C1 [CBK284443]	97.7

Structure (SMILES)	viability at 28.5 h, 10 µM [%]
CC(=O)N1CC2(CCN(C(=O)C(C)(C)C)CC2)Nc2ccccc21 [CBK284448]	102
O=C1N[C@@]2(CC3CCC2CC3C(=O)N2CCCC2)Nc2ccccc21 (some centres unmarked) [CBK284449]	91.8
CC(C)C(=O)N1C2CCC1Cn1c(nc3ccccc3c1=O)C2 (centres unmarked) [CBK284450]	85.3
O=C(c1ccco1)N1C2CCC1Cn1c(nc3ccccc3c1=O)C2 (centres unmarked) [CBK284452]	89.1
O=C(C1CCC1)N1C2CCC1Cn1c(nc3ccccc3c1=O)C2 (centres unmarked) [CBK284453]	91.5
CN1CCC2(CCC1=O)CC(NC(=O)C1CC1)c1ccccc1O2 (centres unmarked) [CBK284455]	93.3
O=C(CCn1cccn1)N1CCC(c2cc3ncccc3[nH]2)CC1 [CBK284457]	83.6
O=C(CCc1ccncc1)N1CCC(c2cc3ncccc3[nH]2)CC1 [CBK284460]	84.3
Cc1cc(-c2ccc(=O)n(CCNC(=O)c3cccs3)n2)c(C)o1 [CBK284461]	92.3
O=C1CCN(Cc2ccccc2)CCN1Cc1cccc(F)c1 [CBK284466]	96.4
Cc1ncsc1C(=O)N1CCCC(n2cnc3cc(F)ccc32)C1 (centres unmarked) [CBK284470]	91.2
Cc1ccc2c(c1)oc(=O)n2CCNC(=O)Cc1c[nH]c2ccccc12 [CBK284473]	101
O=C(c1cccnc1)N1CCCC(n2cnc3cc(F)ccc32)C1 (centres unmarked) [CBK284474]	85.6
O=C(c1ccco1)N1CCCC(n2cnc3cc(F)ccc32)C1 (centres unmarked) [CBK284475]	94.8
O=C(c1ccccn1)N1CCCC(n2cnc3cc(F)ccc32)C1 (centres unmarked) [CBK284476]	92.7
O=C(c1cscn1)N1CCCC(n2cnc3cc(F)ccc32)C1 (centres unmarked) [CBK284477]	90.8
Clc1ccc2c(c1)NC(c1ccco1)N1CCN=C21 (centres unmarked) [CBK284479]	84.8
Cc1cc(-c2cnoc2C2CCCN(C(=O)c3cccs3)C2)on1 (centres unmarked) [CBK284480]	102
CC1CCc2nn(CCNC(=O)c3ccco3)c(=O)cc2C1 (centres unmarked) [CBK284481]	95.2
CC1CCc2nn(CCNC(=O)Cc3ccccc3F)c(=O)cc2C1 (centres unmarked) [CBK284482]	97.2
CC1CCc2nn(CCNC(=O)c3cccs3)c(=O)cc2C1 (centres unmarked) [CBK284483]	97.4
CC1CCc2nn(CCNC(=O)C3CCCC3)c(=O)cc2C1 (centres unmarked) [CBK284484]	91.1
c1csc(C2Nc3ccccc3C3=NCCCN32)c1 (centres unmarked) [CBK284489]	99.2

Structure (SMILES)	viability at 28.5 h, 10 µM [%]
O=C(c1ccco1)N1CCC(c2ccnc3nc4ccccc4n23)CC1 [CBK284490]	87.2
Cc1ncc2c(n1)[C@@H]1CN(C(=O)Cc3cccs3)C[C@@H]1CC2 [CBK284491]	89.3
Cc1cc(-c2sc(N)nc2-c2cccs2)on1 [CBK284492]	87.9
O=C(Nc1nc(-c2ccco2)c(-c2ccncc2)s1)C1CC1 [CBK284494]	87.4
CCC(=O)Nc1nc(-c2ccco2)c(-c2ccncc2)s1 [CBK284495]	101
O=C(C1CCC1)N1CCC(c2onc3c2CCCCC3)CC1 [CBK284496]	104
CCS(=O)(=O)N1CCC(c2onc3c2CCCCC3)CC1 [CBK284497]	93.5
c1cncc(-c2ncc(-c3ccco3)c(-c3ccco3)n2)c1 [CBK284503]	93.5
O=C(C1CCC1)N1CCC2(CC1)Nc1cccnc1-n1cccc12 [CBK284505]	92.5
CC(C)(C)C(=O)N1CCC2(CC1)Nc1cccnc1-n1cccc12 [CBK284507]	95.6
Cc1cc(C(=O)N2CC3CCCC(O)(c4cccn4C)C3C2)c(C)[nH]1 (centres unmarked) [CBK284514]	93.9
N=C1OC2CSCC2N1C(=O)Cc1ccccc1Cl (centres unmarked) [CBK284516]	106
N=C1OC2CSCC2N1C(=O)Cc1c(F)cccc1Cl (centres unmarked) [CBK284517]	84.9
Cc1cc(-c2ccc(=O)n(CCNC(=O)C3CCC3)n2)c(C)o1 [CBK284520]	110
Cc1cc(-c2ccc(=O)n(CCNC(=O)C3CC3)n2)c(C)o1 [CBK284521]	93.2
CC(C)NC(=O)c1ccc(-n2cccn2)c(C#Cc2cccnc2)c1 [CBK284523]	94.3
COC(=O)c1ccc(-n2cccn2)c(C#Cc2cccnc2)c1 [CBK284525]	95.2
C[C@@H](Cn1nc2c(cc1=O)CCCC2)NC(=O)Cc1ccc(F)cc1 [CBK284526]	100
C[C@@H](Cn1nc2c(cc1=O)CCCC2)NC(=O)Cc1cccc(F)c1 [CBK284527]	95.9
O=C(c1ccc(F)cc1)N1CCC[C@@H]1Cn1c(=O)oc2ccccc21 [CBK284529]	89.4
O=C(Cc1ccsc1)N1CCC[C@@H]1Cn1c(=O)oc2ccccc21 [CBK284530]	91.2
CC[C@H](Cn1c(=O)oc2ccccc21)NC(=O)Cc1cccs1 [CBK284537]	84.7
CC[C@H](Cn1c(=O)oc2ccccc21)NC(=O)C1CCCC1 [CBK284542]	97.2
